We go through eight molecules from patent publication US20040116480A1, “Oxime ether compound and agricultural or horticultural bactericide” (priority 2001, published 2004).

For the assay, the system named is kidney bean gray mold fungus (Botrytis cinerea). Description: Test on kidney bean gray mold control, dipped flowers on detached leaves. In kind it is in vivo. The note with it: 168 h, 50 ppm active ingredient, kidney bean flowers (Nagauzura) dipped, then spore solution sprayed, 20° C., 7 days, lesion diameter, read-out: control efficacy. The method, then: The following test examples show the efficacy of the compounds of the present invention as active ingredients of various agents for controlling plant diseases. The control efficacy was determined by visual observation of the infested states of test plants, that is, degrees of legions and growth of colonies on leaves and stalks, when they were examined, in comparison with those of control plants.
Test on Kidney Bean Gray Mold Control
Flowers of kidney bean (variety: Nagauzura) grown in a flat vessel for culturing seedlings were cut, and dipped into a solution of an emulsifiable concentrate prepared for a compound of the present invention, diluted to a concentration of 50 ppm based on the active ingredient. After the dipping, the flowers were dried at room temperature. Then a spore solution of kidney bean gray mold fungus (Botrytis cinerea) was sprayed onto the flowers. The treated flowers were placed on leaves detached from healthy kidney bean plants, placed in a temperature-controlled room at 20° C. with high humidity and repeated lighting of 12-hour intervals, and incubated for 7 days. Diameters of the legions on the leaves were measured and compared with those of the control healthy leaves to determine the control efficacy.
Take `COc1ncnc(OC)c1CO/N=C/c1cc(Cl)cc(C)n1` [II-20, 4-chloro-6-methyl-2-pyridinecarboxyaldehyde O-[(4,6-dimethoxy-5-pyrimidinyl)methyl]oxime]: the pest or weed control at 50 ppm was at least 75%.
Then `COc1ccnc(OC)c1CO/N=C(\C)c1cc(C)cc(C)n1` [II-14, 1-(4,6-dimethyl-2-pyridinyl)ethanone O-[(2,4-dimethoxy-3-pyridinyl)methyl]oxime], with at least 75%; and `COc1ccnc(OC)c1CO/N=C/c1cc(C#N)cc(C)n1` [II-27, 4-cyano-6-methyl-2-pyridinecarboxyaldehyde O-[(2-,4-dimethoxy-3-pyridinyl)methyl]oxime], with at least 75%; and `COc1ncnc(OC)c1CO/N=C(\C)c1cc(C)cc(C)n1` [II-17, 1-(4,6-dimethyl-2-pyridinyl)ethanone O-[(4,6-dimethoxy-5-pyrimidinyl)methyl]oxime], with at least 75%.
Then `COc1ncnc(OC)c1CO/N=C/c1cc(C(F)(F)F)cc(C)n1` [II-36, 6-methyl-4-trifluoromethyl-2-pyridinecarboxyaldehyde O-[(4,6-dimethoxy-5-pyrimidinyl)methyl]oxime], with at least 75%; and `COc1nccc(C)c1CO/N=C/c1cc(C)cc(C)n1` [II-3, 4,6-dimethyl-2-pyridinecarboxyaldehyde O-[(2-methoxy-4-methyl-3-pyridinyl)methyl]oxime], with at least 75%; and `COc1nccc(C)c1CO/N=C/c1cc(C#N)cc(C)n1` [II-28, 4-cyano-6-methyl-2-pyridinecarboxyaldehyde O-[(2-methoxy-4-methyl-3-pyridinyl)methyl]oxime], with at least 75%.
As for `COc1ncnc(OC)c1CO/N=C/c1cc(C#N)cc(C)n1` [II-29, 4-cyano-6-methyl-2-pyridinecarboxyaldehyde O-[(4,6-dimethoxy-5-pyrimidinyl)methyl]oxime], the pest or weed control at 50 ppm is at least 75%.
